Laboratory results reported in article PMC12645437, “Orthogonal IMiD-Degron Pairs Induce Selective Protein Degradation in Cells” (ACS Chemical Biology, 2025).

Tested on: library of 8380 IKZF3 degrons fused to EGFP in Jurkat cells
Assay: Pooled mutant ZF degron library screen (FACS EGFPlow vs EGFP+, NGS), 18 h;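 as to logFC: Log2 fold change of EGFPlow over EGFP+ representation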
Format: cell-based, human

Compound: O=C1CCC(N2C(=O)c3ccccc3C2=O)C(=O)N1 (centres unmarked) [Compound 1, thalidomide, reference compound]
- logFC (degron residues 146/147/149/150/152/153/154/155/167: FADQGAPFL): -2.41
- logFC (degron residues 146/147/149/150/152/153/154/155/167: FADQGAQFL): -3.13
- logFC (degron residues 146/147/149/150/152/153/154/155/167: FADQGARFL): -2.69
- logFC (degron residues 146/147/149/150/152/153/154/155/167: FADQGASFL): -3.41
- logFC (degron residues 146/147/149/150/152/153/154/155/167: FADQGATFL): -2.79
- logFC (degron residues 146/147/149/150/152/153/154/155/167: FADQGAVFL): -2.29
- logFC (degron residues 146/147/149/150/152/153/154/155/167: FADQGAWFL): -2.86
- logFC (degron residues 146/147/149/150/152/153/154/155/167: FADQGAYFL): -2.43
- logFC (degron residues 146/147/149/150/152/153/154/155/167: FADVGAAFL): -1.13
- logFC (degron residues 146/147/149/150/152/153/154/155/167: FADVGACFL): -2.56
- logFC (degron residues 146/147/149/150/152/153/154/155/167: FADVGADFL): -2.99
- logFC (degron residues 146/147/149/150/152/153/154/155/167: FADVGAEFL): -2.38
- logFC (degron residues 146/147/149/150/152/153/154/155/167: FADVGAFFL): -1.98
- logFC (degron residues 146/147/149/150/152/153/154/155/167: FADVGAGFL): -2.06
- logFC (degron residues 146/147/149/150/152/153/154/155/167: FADVGAHFL): -2.25
- logFC (degron residues 146/147/149/150/152/153/154/155/167: FADVGAIFL): -1.83
- logFC (degron residues 146/147/149/150/152/153/154/155/167: FADVGAKFL): -1.45
- logFC (degron residues 146/147/149/150/152/153/154/155/167: FADVGALFL): -2.47
- logFC (degron residues 146/147/149/150/152/153/154/155/167: FADVGAMFL): -2.29
- logFC (degron residues 146/147/149/150/152/153/154/155/167: FADVGANFL): -2.15
- logFC (degron residues 146/147/149/150/152/153/154/155/167: FADVGAPFL): -0.92
- logFC (degron residues 146/147/149/150/152/153/154/155/167: FADVGAQFL): -1.67
- logFC (degron residues 146/147/149/150/152/153/154/155/167: FADVGARFL): -1.19
- logFC (degron residues 146/147/149/150/152/153/154/155/167: FADVGASFL): -1.27
- logFC (degron residues 146/147/149/150/152/153/154/155/167: FADVGATFL): -1.78
- logFC (degron residues 146/147/149/150/152/153/154/155/167: FADVGAVFL): -2.08
- logFC (degron residues 146/147/149/150/152/153/154/155/167: FADVGAWFL): -2.99
- logFC (degron residues 146/147/149/150/152/153/154/155/167: FADVGAYFL): -2.07
- Log2FC (degron residues 146/147/149/150/152/153/154/155/167: FQEIGAPFL): 3.7224
- Log2FC (degron residues 146/147/149/150/152/153/154/155/167: FQEIGARFL): 3.7041
- Log2FC (degron residues 146/147/149/150/152/153/154/155/167: FQEIGASFL): 3.7484
- Log2FC (degron residues 146/147/149/150/152/153/154/155/167: FQEVGAQFL): 3.7719
- Log2FC (degron residues 146/147/149/150/152/153/154/155/167: FQEVGARFL): 3.7061
- Log2FC (degron residues 146/147/149/150/152/153/154/155/167: FQEVGATFL): 3.7446
- Log2FC (degron residues 146/147/149/150/152/153/154/155/167: FQEVGAVFL): 3.7106
- Log2FC (degron residues 146/147/149/150/152/153/154/155/167: FQNIGAIFL): 3.8114
- Log2FC (degron residues 146/147/149/150/152/153/154/155/167: FQNIGAPFL): 3.7088
- Log2FC (degron residues 146/147/149/150/152/153/154/155/167: FQNIGATFL, listed as Thal): 3.867
- Log2FC (degron residues 146/147/149/150/152/153/154/155/167: FQNIGATFL, listed as Thalidomide): 3.8667
- Log2FC (degron residues 146/147/149/150/152/153/154/155/167: FQPIGACFL): 3.7711
- Log2FC (degron residues 146/147/149/150/152/153/154/155/167: FQPIGADFL, listed as Thal): 3.806
- Log2FC (degron residues 146/147/149/150/152/153/154/155/167: FQPIGADFL, listed as Thalidomide): 3.8059
- Log2FC (degron residues 146/147/149/150/152/153/154/155/167: FQPIGAIFL): 3.7924
- Log2FC (degron residues 146/147/149/150/152/153/154/155/167: FQPIGASFL (QPIS), listed as Thal): 3.79
- Log2FC (degron residues 146/147/149/150/152/153/154/155/167: FQPIGASFL (QPIS), listed as Thalidomide): 3.7900
- Log2FC (degron residues 146/147/149/150/152/153/154/155/167: FQPVGAEFL): 3.7612
- Log2FC (degron residues 146/147/149/150/152/153/154/155/167: FQPVGAKFL, listed as Thal): 3.962
- Log2FC (degron residues 146/147/149/150/152/153/154/155/167: FQPVGAKFL, listed as Thalidomide): 3.9618
- Log2FC (degron residues 146/147/149/150/152/153/154/155/167: FQPVGAPFL, listed as Thal): 3.872
- Log2FC (degron residues 146/147/149/150/152/153/154/155/167: FQPVGAPFL, listed as Thalidomide): 3.8717
- Log2FC (degron residues 146/147/149/150/152/153/154/155/167: FQPVGATFL): 3.7941
- Log2FC (degron residues 146/147/149/150/152/153/154/155/167: FQPVGAVFL): 3.7460
- Log2FC (degron residues 146/147/149/150/152/153/154/155/167: LQPIGFVCL): 3.7517
